{"source": "patent US8507506B2", "about": "“Theophylline derivative inhibits osteoporosis” (Kaohsiung Medical University, priority 2011, dated 2013)", "type_in_all_cases": "cell-based", "key": {"[1]": {"system": "TRAP mRNA in RAW264.7 cells", "assay": "RT-PCR, RANKL-induced mRNA expression of TRAP", "settings": "for RANKL-induced mRNA expression level of TRAP: RAW264.7 cells, 24 hours, CTL 100%, mean ± SEM", "text": "(§1) The culture medium was discarded. […] [table] f) Running • A."}, "[2]": {"system": "Fra-2 mRNA in RAW264.7 cells", "assay": "RT-PCR, RANKL-induced mRNA expression of Fra-2", "settings": "for RANKL-induced mRNA expression level of Fra-2: RAW264.7 cells, 24 hours, CTL 100%, mean ± SEM", "text": "as §1"}, "[3]": {"system": "Cathepsin K mRNA in RAW264.7 cells", "assay": "RT-PCR, RANKL-induced mRNA expression of Cathepsin K", "settings": "for RANKL-induced mRNA expression level of Cathepsin K: RAW264.7 cells, 24 hours, CTL 100%, mean ± SEM", "text": "as §1"}, "RAW264.7 cells": {"system": "RAW264.7 cells", "assay": "MTT assay, proliferation induced by RANKL", "settings": "RAW264.7, 5 μM, 7.5 μM, 10 μM, FIG. 1", "quoted_text": "Cells were plated onto 96-well plates at a density of 10^3 cells per well. After 24 hours incubation, the different concentrations of the different drugs were administrated into the plates. […] Subsequently, the medium was removed, and 100 μl/well isopropanol was added to solved formazan. The plates were shaken for 15 minutes and stood for 15 minutes, and then the absorbance was measured at wavelength of 540 nm and 630 nm. The ratio of the absorbance of treated cells relative to that of the control cells was calculated and expressed as a percentage of cell survival."}, "[4]": {"system": "RAW264.7 cells stimulated by RANKL", "assay": "TRAP stain, differentiation into multinuclear osteoclast-like cells", "settings": "10 ng/ml RANKL for 5 days, FIG. 3", "quoted_text": "10^3 cells were plated per well in 96-well plates. […] PBS, 50 μl/well fluid was left. […] 50 μl/well fluid was left, and then Substrate 200 μl/well was added to react for 15 minutes in room temperature. After the cells were stained in red, the cells were washed by ddH2O. At last, the cells were observed and taken pictures by an optical microscopy (40× and 200×), and Autopano Pro V1.4.2, Kolor, Paris, was used to proceed the pictures taken in 40×. Then, the number of the osteoclasts with at least three nuclei was counted and compared with the control group. […] Fixative solution: Citrate solution 25 ml, Acetone 65 ml, 37% Formaldehyde 8 ml. Stored in dark in 4° C. • 2. Citrate solution: 18 mM citric acid, 9 mM sodium citrate, and 12 mM NaCl were solved in 100 ml water, pH 3.6, and then 0.001% Triton X-100 was added at last. • 3. Substrate: 2 mg AS-MX (Naphthol As-Mx-phosphate disodium) and 6 mg Fast Red Violet LB were solved in 1 M Sodium tartrate acetone (0.1 M, pH 5) and 0.1 M, 19 ml sodium acetate."}, "[5]": {"system": "TRAP activity of RAW264.7 cells induced by RANKL", "assay": "TRAP activity assay", "settings": "10 ng/ml RANKL for 5 days, different concentrations, FIG. 4", "quoted_text": "10^3 cells were plated per well in 96-well plates. […] When the reaction fluid became yellow, 0.1 M, 100 μl/well NaOH was added to terminate the reaction, and OD405 was examined in 37° C. b) 3 μl/well supernatant was examined by Bio-Red DC Protein Assay to detect the protein concentration."}, "[6]": {"system": "IL-1β secretion by RAW264.7 cells", "assay": "ELISA, RANKL-induced secretion of IL-1β", "settings": "RAW264.7, ELISA, FIG. 6", "experimental": "Under RANKL stimulation, mononuclear RAW264.7 cells can secrete pro-inflammatory cytokines such as TNF-α, IL-1, IL-6, etc. ELISA is used to measure that KMUP-1 influences RANKL to induce the secretion of pro-inflammatory cytokines. […] 10^5 cells were plated per well in 24-well plates. […] After 24 hours reaction, the reaction fluid was centrifuged (13,000 rpm, 4° C., 20 minutes), and then the supernatant was tasted by ELISA kit (R&D system and eBioscience™) to detect the amount of TNF-α, IL-1β, IL-6, and IL-10. The experimental process is followed with the instructions of the kit."}, "[7]": {"system": "osteoclast-like cells, OCL", "assay": "Intracellular calcium (fura-2/AM), RANKL-induced calcium influx", "settings": "1 μM and 10 μM, FIGS. 14 and 15"}, "[8]": {"system": "MMP-2 enzyme activity of RAW264.7 cells", "assay": "Gelatin zymography, enzyme activity of MMP-2 induced by RANKL", "settings": "10 μM, RANKL 24 hours, FIG. 20", "experimental": "KMUP-1 influences there major up-stream signal transduction pathways which are related to RANK/RANKL. Western blot is used to estimate the amount of matrix metalloproteinase (MMP)-2 and MMP-9 which are related to the dissolution of osteoclast-like cells, and the enzyme activity of MMP-2 and MMP-9 are estimated via Gelatin Zymography. […] After 24 hours reaction, the reaction fluid was centrifuged (13,000 rpm, 4° C., 20 minutes), and then the supernatant was stored in −80° C. • b) 10% gel preparation. 10 mg gelatin was added by 1 ml ddH2O and then was heated in water bath until the solution was clear. • c) Concentrations of the proteins were examined by Bio-Red DC Protein Assay. After knowing the concentrations, the proteins were diluted to specific concentrations by adding ddH2O. One forth volume of the diluted proteins of sample buffer was added into the diluted proteins. After shaking, the diluted proteins could be added into wells of the gel. Subsequently, 1× running buffer was added with the gel, and then the gel was run at 100 V for 10 minutes until the proteins were driven to the intersection between a loading gel and a running gel. Then, the voltage was swopped to 200 V for 60 minutes. • d) After electrophoresis, the loading gel was discarded, and the left gel was washed by TritonX-100 buffer for 30 minutes in room temperature twice. […]"}, "[9]": {"settings": "10 ng/ml RANKL, summary of Table 1"}}, "note": "Marks after values point to notes of the source that are not given here.", "data": [{"smiles": "Cn1c(=O)c2c(ncn2CCN2CCN(c3ccccc3Cl)CC2)n(C)c1=O", "note": "[KMUP-1, 7-[2-[4-(2-Chlorophenyl)piperazin-1-yl]ethyl] theophylline]", "values": [{"measurement": "effect on mRNA expression of TRAP induced by RANKL (in words)", "setting": "[1]; [9]", "result": "inhibits the mRNA expression"}, {"measurement": "RANKL-induced mRNA expression level of TRAP", "setting": "[1]; RANKL 10 ng/ml + KMUP-1 1 μM", "result": "422.4 ± 24.8", "unit": "%"}, {"measurement": "RANKL-induced mRNA expression level of TRAP", "setting": "[1]; RANKL 10 ng/ml + KMUP-1 2.5 μM", "result": "427.7 ± 39.3", "unit": "%"}, {"measurement": "RANKL-induced mRNA expression level of TRAP", "setting": "[1]; RANKL 10 ng/ml + KMUP-1 5 μM", "result": "359.9 ± 20.7", "unit": "% ^b"}, {"measurement": "RANKL-induced mRNA expression level of TRAP", "setting": "[1]; RANKL 10 ng/ml + KMUP-1 7.5 μM", "result": "293.8 ± 30.1", "unit": "% ^b"}, {"measurement": "RANKL-induced mRNA expression level of TRAP", "setting": "[1]; RANKL 10 ng/ml + KMUP-1 10 μM", "result": "259.3 ± 18.3", "unit": "% ^b"}, {"measurement": "effect on mRNA expression of Fra-2 induced by RANKL (in words)", "setting": "[2]; [9]", "result": "not obviously inhibits"}, {"measurement": "RANKL-induced mRNA expression level of Fra-2", "setting": "[2]; RANKL 10 ng/ml + KMUP-1 1 μM", "result": "428.3 ± 38.5", "unit": "%"}, {"measurement": "RANKL-induced mRNA expression level of Fra-2", "setting": "[2]; RANKL 10 ng/ml + KMUP-1 2.5 μM", "result": "490.5 ± 42.3", "unit": "%"}, {"measurement": "RANKL-induced mRNA expression level of Fra-2", "setting": "[2]; RANKL 10 ng/ml + KMUP-1 5 μM", "result": "488.2 ± 57.6", "unit": "% ^"}, {"measurement": "RANKL-induced mRNA expression level of Fra-2", "setting": "[2]; RANKL 10 ng/ml + KMUP-1 7.5 μM", "result": "474.5 ± 52.1", "unit": "% ^"}, {"measurement": "RANKL-induced mRNA expression level of Fra-2", "setting": "[2]; RANKL 10 ng/ml + KMUP-1 10 μM", "result": "496.6 ± 44.1", "unit": "% ^"}, {"measurement": "effect on mRNA expression of Cathepsin K induced by RANKL (in words)", "setting": "[3]; [9]", "result": "not obviously inhibits"}, {"measurement": "RANKL-induced mRNA expression level of Cathepsin K", "setting": "[3]; RANKL 10 ng/ml + KMUP-1 1 μM", "result": "304 ± 7.8", "unit": "%"}, {"measurement": "RANKL-induced mRNA expression level of Cathepsin K", "setting": "[3]; RANKL 10 ng/ml + KMUP-1 2.5 μM", "result": "305 ± 5.9", "unit": "%"}, {"measurement": "RANKL-induced mRNA expression level of Cathepsin K", "setting": "[3]; RANKL 10 ng/ml + KMUP-1 5 μM", "result": "312 ± 6.2", "unit": "%^"}, {"measurement": "RANKL-induced mRNA expression level of Cathepsin K", "setting": "[3]; RANKL 10 ng/ml + KMUP-1 7.5 μM", "result": "321.5 ± 10.2", "unit": "% ^"}, {"measurement": "RANKL-induced mRNA expression level of Cathepsin K", "setting": "[3]; RANKL 10 ng/ml + KMUP-1 10 μM", "result": "245 ± 8.5", "unit": "% ^b"}, {"measurement": "cell proliferation induced by RANKL (MTT assay)", "setting": "RAW264.7 cells", "result": "can inhibit the cell proliferation induced by RANKL"}, {"measurement": "differentiation into multinuclear osteoclast-like cells (TRAP staining)", "setting": "[4]", "result": "obviously express inhibition phenomenon related to dose"}, {"measurement": "TRAP activity induced by RANKL", "setting": "[5]", "result": "can be inhibited, and the inhibiting effect is related to dose"}, {"measurement": "RANKL-induced secretion of IL-1", "setting": "[6]", "result": "presents a dose dependent inhibition phenomenon"}, {"measurement": "RANKL-induced extracellular calcium influx", "setting": "[7]", "result": "can inhibit it"}, {"measurement": "enzyme activity of MMP-2 induced by RANKL", "setting": "[8]", "result": "can reduce the enzyme activity of MMP-2 and MMP-9"}]}]}
